Results taken from ChEMBL document CHEMBL3997814, “Identification of novel inverse agonists of estrogen-related receptors ERRγ and ERRβ” (Bioorg Med Chem, 2017).
Calls of active or inactive are those of the source. The rule behind the calls is not given here.

Assays:
[1] = target: Estrogen receptor beta (Homo sapiens) (UniProt Q92731); test: Inverse agonist activity at human ERbeta expressed in African green monkey CV1 cells assessed as decrease in receptor transcriptional activity up to 3 uM after 45 hrs by luciferase reporter gene assay; format: cell-based
Estrogen receptor beta (Homo sapiens), sequence (Q92731 whole entry): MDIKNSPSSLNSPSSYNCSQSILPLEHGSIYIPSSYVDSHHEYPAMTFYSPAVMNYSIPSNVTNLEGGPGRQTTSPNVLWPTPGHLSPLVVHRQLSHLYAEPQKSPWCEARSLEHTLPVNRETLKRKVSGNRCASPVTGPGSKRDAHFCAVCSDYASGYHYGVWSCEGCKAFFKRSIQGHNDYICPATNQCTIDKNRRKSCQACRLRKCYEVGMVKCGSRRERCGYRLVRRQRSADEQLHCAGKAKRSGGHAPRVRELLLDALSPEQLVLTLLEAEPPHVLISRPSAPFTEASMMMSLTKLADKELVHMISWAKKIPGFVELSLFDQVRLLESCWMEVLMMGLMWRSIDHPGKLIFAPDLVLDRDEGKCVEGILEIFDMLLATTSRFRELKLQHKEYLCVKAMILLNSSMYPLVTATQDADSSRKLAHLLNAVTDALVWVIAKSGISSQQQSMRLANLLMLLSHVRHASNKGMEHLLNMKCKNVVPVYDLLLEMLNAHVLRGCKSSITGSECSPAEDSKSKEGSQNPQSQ

[2] = target: T1, Estrogen receptor (Homo sapiens) (UniProt P03372); test: Inverse agonist activity at human ERalpha expressed in African green monkey CV1 cells assessed as decrease in receptor transcriptional activity up to 3 uM after 45 hrs by luciferase reporter gene assay; format: cell-based
T1 sequence (whole entry): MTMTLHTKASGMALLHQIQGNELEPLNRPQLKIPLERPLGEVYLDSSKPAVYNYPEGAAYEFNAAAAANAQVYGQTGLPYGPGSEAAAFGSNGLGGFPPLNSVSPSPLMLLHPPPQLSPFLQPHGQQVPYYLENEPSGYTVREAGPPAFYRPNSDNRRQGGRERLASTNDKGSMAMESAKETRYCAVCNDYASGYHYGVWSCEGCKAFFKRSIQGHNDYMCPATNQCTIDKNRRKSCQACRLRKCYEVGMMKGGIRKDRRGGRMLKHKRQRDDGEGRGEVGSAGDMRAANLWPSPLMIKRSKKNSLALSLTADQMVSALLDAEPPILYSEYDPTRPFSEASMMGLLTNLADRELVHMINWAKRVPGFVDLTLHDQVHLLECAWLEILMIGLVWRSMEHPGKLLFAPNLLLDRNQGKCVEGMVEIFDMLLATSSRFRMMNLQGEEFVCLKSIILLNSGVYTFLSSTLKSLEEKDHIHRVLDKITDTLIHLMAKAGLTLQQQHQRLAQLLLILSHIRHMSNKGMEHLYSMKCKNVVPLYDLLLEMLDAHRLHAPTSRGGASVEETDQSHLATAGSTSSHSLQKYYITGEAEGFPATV

[3] = target: T2, Steroid hormone receptor ERR1 (Homo sapiens) (UniProt P11474); test: Inverse agonist activity at GAL4-DNA binding domain-fused human ERRalpha ligand binding domain expressed in African green monkey CV1 cells assessed as decrease in receptor transcriptional activity at 10 uM after 45 hrs by luciferase reporter gene assay; format: cell-based
T2 sequence (whole entry): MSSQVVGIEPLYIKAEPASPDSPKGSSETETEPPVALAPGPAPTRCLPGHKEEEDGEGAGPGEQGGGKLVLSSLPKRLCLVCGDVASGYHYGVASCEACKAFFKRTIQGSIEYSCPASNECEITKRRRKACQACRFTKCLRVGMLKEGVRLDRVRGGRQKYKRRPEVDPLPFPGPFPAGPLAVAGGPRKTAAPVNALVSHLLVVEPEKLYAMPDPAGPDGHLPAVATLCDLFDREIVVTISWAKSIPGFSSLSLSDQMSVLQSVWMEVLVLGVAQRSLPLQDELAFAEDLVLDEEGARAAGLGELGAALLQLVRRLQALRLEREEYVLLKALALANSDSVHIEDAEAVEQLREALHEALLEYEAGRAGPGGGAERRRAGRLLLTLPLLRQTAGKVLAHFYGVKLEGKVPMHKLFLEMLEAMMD

[4] = target: T1, Estrogen receptor (Homo sapiens); test: Antagonist activity at human ERalpha expressed in African green monkey CV1 cells assessed as decrease in receptor transcriptional activity after 45 hrs by luciferase reporter gene assay; format: cell-based
[5] = target: T2, Steroid hormone receptor ERR1 (Homo sapiens); test: Inverse agonist activity at GAL4-DNA binding domain-fused human ERRalpha ligand binding domain expressed in African green monkey CV1 cells assessed as decrease in receptor transcriptional activity after 45 hrs by luciferase reporter gene assay; format: cell-based
[6] = target: T3, Estrogen-related receptor gamma (Mus musculus, UniProt P62509)
T3 sequence (P62509 whole entry): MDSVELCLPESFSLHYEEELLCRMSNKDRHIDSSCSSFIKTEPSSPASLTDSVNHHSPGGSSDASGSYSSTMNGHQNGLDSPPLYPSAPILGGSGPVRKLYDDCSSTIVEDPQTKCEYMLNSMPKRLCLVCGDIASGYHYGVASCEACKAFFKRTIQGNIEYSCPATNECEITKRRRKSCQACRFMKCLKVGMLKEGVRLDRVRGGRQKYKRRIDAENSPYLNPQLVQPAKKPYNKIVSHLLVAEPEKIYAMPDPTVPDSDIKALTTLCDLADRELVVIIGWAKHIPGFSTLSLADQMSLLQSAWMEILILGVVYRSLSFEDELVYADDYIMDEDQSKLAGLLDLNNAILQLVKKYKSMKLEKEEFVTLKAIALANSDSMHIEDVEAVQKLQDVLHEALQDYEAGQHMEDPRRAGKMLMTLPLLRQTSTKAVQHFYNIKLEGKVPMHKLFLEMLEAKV
Description: Inverse agonist activity at GAL4-DNA binding domain-fused mouse ERRgamma ligand binding domain expressed in African green monkey CV1 cells assessed as decrease in receptor transcriptional activity after 45 hrs by luciferase reporter gene assay

Structure (SMILES)	Activity [3]	other results
COC(=O)CC/C(=C(\c1ccc(O)cc1)c1ccc(OCCN(C)C)cc1)c1ccccc1	inactive	Activity [1]: inactive; Activity [2]: inactive
COC(=O)C(C)C/C(=C(\c1ccc(O)cc1)c1ccc(OCCN(C)C)cc1)c1ccccc1 (stereo not given)	inactive	Activity [1]: inactive; Activity [2]: inactive
CC(=O)Oc1ccc(/C(=C(\CC(C)CO)c2ccccc2)c2ccc(OCCN(C)C)cc2)cc1 (stereo not given)	inactive	
CN(C)CCOc1ccc(/C(=C(/CCCO)c2ccccc2)c2ccc(O)cc2)cc1	inactive	
CC(=O)Oc1ccc(/C(=C(/c2ccccc2)C(C)C)c2ccc(OCCN(C)C)cc2)cc1	inactive	inhibition [4]: Active
CC/C(=C(/c1ccc(O)cc1)c1ccc(OCCN(C)C)cc1)c1ccccc1		Activity [5]: inactive
CC/C(=C(\c1ccc(O)cc1)c1ccc(OCCN(C)C)cc1)c1ccccc1	inactive	
CC(=O)Oc1ccc(/C(=C(\CCCO)c2ccccc2)c2ccc(OCCN(C)C)cc2)cc1	inactive	IC50 [6]: 300 nM
CC(C)C/C(=C(\c1ccc(O)cc1)c1ccc(OCCN(C)C)cc1)c1ccccc1	inactive	IC50 [6]: 1000 nM
CC(CO)C/C(=C(\c1ccc(O)cc1)c1ccc(OCCN(C)C)cc1)c1ccccc1 (stereo not given)	inactive	
CC(C)/C(=C(\c1ccc(O)cc1)c1ccc(OCCN(C)C)cc1)c1ccccc1	inactive	
COC(=O)CCC(=C(c1ccc(O)cc1)c1ccc(O)cc1)c1ccccc1	inactive	
COC(=O)C(C)CC(=C(c1ccc(O)cc1)c1ccc(O)cc1)c1ccccc1 (stereo not given)	inactive	
